This note sets out measurements from patent publication EP0120757A1, “Compositions in the form of microglobules consisting of partially quaternised, tertiary polyamines, and containing hydrophobic compounds, their preparation and application” (Etablissement Public dit: CENTRE NATIONAL DE LA RECHERCHE …, priority 1983, dated 1984).

Values after ≈ are worked out from the molar mass of the structure shown.

A short description of data set [1]: Solubilisation of griseofulvine in aqueous Q-P(TDAE)19 microglobule solution, assayed by circular dichroism at 294 nm after filtration. Format: physicochemical. As to conditions: Example 5, Q-P(TDAE)19 TN = 2,5 x 10^-2 N, per ml of filtrate. The procedure: Les essais sont effectués à partir d'une solution basique de Q-P(TDAE)19 (TN= 2,5 x 10^-2 N). Des échantillons contenant 5ml de cette solution basique sont ajustés aux pH correspondant aux différents β par addition de HC1 0,5N).
7mg de griseofulvine en poudre sont ajoutés à chaque échantillon. On laisse soniquer pendant 5 minutes et on filtre les mélanges sur filtre millipore (0,45 micromètre). Les filtrats limpides sont conservés de la même façon que pour les exemples 1 et 2. Le dosage de la griseofulvine solubilisée est effectué dans le milieu solvant eau-acétonitrile : 20/80, V/V. On prélève dans chaque essai, 1ml de filtrat qui est dilué à 5ml par de l'acétonitrile. Les ellipticités des différentes solutions sont mesurées à λ = 294nm et comparées à des solutions standard de griseofulvine dissoutes dans le même milieu solvant.
Le tableau suivant donne les quantités de griseofulvine dissoute (en microgrammes par ml de filtrat) en fonction du pH et du degré de protonation β . La solubilité de la griseofulvine dans l'eau est de l'ordre de 13 à 15 microgrammes par ml.

Data set [2] can be described thus: Solubility of the hydrophobic drug in water without polymer.
The nature of data set [3]: Solubilisation of progestérone in aqueous Q-P(TDAE)19 microglobule solution, assayed by circular dichroism at 285 nm after filtration. Format: physicochemical. The following applies: for progestérone (microgrammes/ml): per ml of filtrate; for quantité de progestérone dissoute: Example 3, Q-P(TDAE)19 TN = 0,125 N, pH = 7,7, β = 0,06. The procedure: A) Les essais sont effectués à partir d'une solution basique de poly(diéthylaminométhyl thiiranne) quaternisée à 19% Q-P(TDAE)19 de formule [drawing 4] X étant un anion (par exemple un anion halogénure tel que chlorure ou bromure), à une concentration TN = (2,5+ 0,1)x 10^-2 N (polymère = 3,77mg de polymère sous forme basique par ml de solution).
Cette solution est obtenue de la façon suivante: • 270mg de chlorhydrate de Q-P(TDAE)19 sont dissous dans 10ml d'eau distillée, puis passés sur une résine échangeuse d'anions (BIO-RAD AG 1-x4-20-50 mesh-) sous forme OH et récupérés dans une fiole jaugée de 50ml.
Des échantillons contenant 5m1 de cette solution basique sont ajustés, par addition de HC1 0,5N, aux pH correspondant à différentes valeurs du degré de protonation apparent de la fonction amine tertiaire résiduelle dans le domaine 0 < β< 1. On ajoute 5mg de progestérone en poudre à chaque échantillon et les mélanges sont soit soniqués pendant 5 minutes soit agités pendant 48 heures.
Après dissolution, chaque échantillon est filtré sur filtre millipore (0,45 micromètres). Les filtrats sont clairs et limpides. Le système "véhicule-drogue" peut être conservé de deux façons différentes: • - en solution, pendant quelques mois au réfrigérateur • - sous forme solide, en lyophilisant les filtrats et en les conservant sous vide. Le filtrat lyophilisé se solubilise rapidement en solution aqueuse.
Le dosage de la progestérone solubilisée ne peut être fait que par extraction de cette dernière des microémulsions. Cette extraction est obtenue par éclatement des véhicules globulaires dans un mélange filtrat-éthanol absolu dans le rapport V/V : 20/80. 1ml de chaque filtrat est dilué à 5ml par addition d'éthanol. Les différents filtrats présentent dans la région 350-250nm des bandes dichrolques caractéristiques de la progestérone. Le signal de dichroisme circulaire à λ = 285nm est utilisable pour évaluer la quantité de progestérone présente dans chaque filtrat par comparaison avec les ellipticités de solutions standard de progestérone dissoute dans le même milieu solvant.
Le tableau suivant donne les quantités de progestérone solubilisée (en microgramme par ml de filtrat) en fonction du pH et du degré de protonation β pour chaque essai.
On opère comme à l'exemple 1 mais les essais sont effectués à partir d'une concentration TN = 0,15N de Q-P(TDAE)19 sous forme basique. Des échantillons contenant 2ml de cette solution sont ajustés à différents β par addition de HC1 N et additionnés de 5mg de progestérone. Après sonication pendant 5 minutes, les mélanges sont filtrés sur filtre millipore (0,45 micromètre). Le dosage de la progestérone solubilisée est fait comme précédemment. 0,2ml de chaque filtrat sont dilués à 2ml par de l'éthanol absolu. Les ellipticités sont mesurées â λ = 285nm et comparées aux solutions standard de progestérone effectuées dans les mêmes conditions.
Le tableau suivant donne les quantités de progestérone solubilisée (en microgrammes par ml de filtrat) en fonction du pH et du degré de protonation S.
Deux essais sont réalisés dans les mêmes conditions: concentration en polymère, β et pH identiques mais on ajoute au deuxième essai, du chlorure de sodium de telle façon que la solution soit à 0,9X en NaCl.
Deux échantillons contenant 2m1 de solution basique de Q-P(TDAE)19 (TN = 0,125 N) sont ajustés à pH = 7,7 et à β= 0,06 par addition de 0,06ml de HCl N. Dans le deuxième échantillon, on ajoute 18mg de NaCl. 5mg de progestérone sont additionnés à chaque échantillon. Les mélanges sont soniqués pendant 5 minutes. Le protocole de filtration et de dosage de la progestérone solubilisée est le même qu'à l'exemple 2.
On the technique in general: Circular dichroism is widely used to follow secondary structure.

As a reminder, the solubility is how much of the substance goes into solution per volume. High values mean a readily soluble substance, low ones a poorly soluble substance. With `COC1=CC(=O)C[C@@H](C)[C@]12Oc1c(Cl)c(OC)cc(OC)c1C2=O` [griseofulvine], the “griseofulvine (microgrammes/ml)” value in data set [1] (essai 1, pH 7,6, β 0,02) came to 47 microgrammes/ml; in data set [1] (essai 2, pH 7,08, β 0,093) it was 43 microgrammes/ml; in data set [1] (essai 3, pH 7,0, β 0,185), 36 microgrammes/ml; in data set [1] (essai 4, pH 6,95, β 0,26), 30 microgrammes/ml; in data set [1] (essai 5, pH 6,95, β 0,32), 26 microgrammes/ml; in data set [1] (essai 6, pH 6,95, β 0,42) it was 22 microgrammes/ml. Further, the “griseofulvine (microgrammes/ml)” value in data set [1] (essai 7, pH 6,83, β 0,51) turned out to be 18 microgrammes/ml; in data set [1] (essai 8, pH 6,67, β 0,673), 15 microgrammes/ml; in data set [1] (essai 9, pH 6,20, β 0,89), 15 microgrammes/ml; in data set [1] (essai 10, pH 4,5 à 4,6, β 1) it was 15 microgrammes/ml. This compound also registered a solubility in data set [2] of 13 to 15 µg/mL (≈ 36.9 to 42.5 µM).
With progestérone, in data set [2] (no polymer, approximate values, no source stated), the “solubilité dans l'eau” value was 11 à 12 microgrammes par ml. The “progestérone (microgrammes/ml)” value is 75 microgrammes/ml in data set [3] (Example 1, Q-P(TDAE)19 TN = 2,5 x 10^-2 N, essai 1, pH 7,5, β 0,07); 62-64 microgrammes/ml in data set [3] (Example 1, Q-P(TDAE)19 TN = 2,5 x 10^-2 N, essai 2, pH 6,97, β 0,135); 48-50 microgrammes/ml in data set [3] (Example 1, Q-P(TDAE)19 TN = 2,5 x 10^-2 N, essai 3, pH 6,95, β 0,20); 38 microgrammes/ml in data set [3] (Example 1, Q-P(TDAE)19 TN = 2,5 x 10^-2 N, essai 4, pH 6,95, β 0,26); 26 microgrammes/ml in data set [3] (Example 1, Q-P(TDAE)19 TN = 2,5 x 10^-2 N, essai 5, pH 6,95, β 0,38); 14-16 microgrammes/ml in data set [3] (Example 1, Q-P(TDAE)19 TN = 2,5 x 10^-2 N, essai 6, pH 6,80, β 0,63). The “progestérone (microgrammes/ml)” value in data set [3] (Example 1, Q-P(TDAE)19 TN = 2,5 x 10^-2 N, essai 7, pH 6,55, β 0,75) was 11-12 microgrammes/ml; in data set [3] (Example 1, Q-P(TDAE)19 TN = 2,5 x 10^-2 N, essai 8, pH 6,15, β 0,88), 11-12 microgrammes/ml; in data set [3] (Example 2, Q-P(TDAE)19 TN = 0,15N, essai 1, pH 7,50, β 0,13), 315 microgrammes/ml; in data set [3] (Example 2, Q-P(TDAE)19 TN = 0,15N, essai 2, pH 7,50, β 0,17), 300 microgrammes/ml; in data set [3] (Example 2, Q-P(TDAE)19 TN = 0,15N, essai 3, pH 7,50, β 0,26), 225 microgrammes/ml; in data set [3] (Example 2, Q-P(TDAE)19 TN = 0,15N, essai 4, pH 7,40, β 0,47) it was 185-190 microgrammes/ml. Also, the “progestérone (microgrammes/ml)” value in data set [3] (Example 2, Q-P(TDAE)19 TN = 0,15N, essai 5, pH 7,36, β 0,51) is recorded as 80 microgrammes/ml; in data set [3] (Example 2, Q-P(TDAE)19 TN = 0,15N, essai 6, pH 7,25, β 0,58), 70 microgrammes/ml; in data set [3] (Example 2, Q-P(TDAE)19 TN = 0,15N, essai 7, pH 4,8, β 0,98) it was 10 à 12 microgrammes/ml. For the same compound, the “quantité de progestérone dissoute” value in data set [3] (with NaCl, solution at 0,9X en NaCl (18mg in 2ml)) is 375 microgrammes par ml de filtrat; in data set [3] (without NaCl), 375 microgrammes par ml de filtrat.
